PubChem BioAssay AID340 (DTP/NCI, 2004)
Where “and” joins values, the source holds several entries; their conditions need not be identical. Equal values may be shown once. Inconclusive results and toxic doses are left out.

System: CD2F1 mice, ip reticulum cell sarcoma, survival T/C
Assay: NCI In Vivo Anticancer Drug Screen. Data for tumor model Reticulum Cell Sarcoma (Kelley Mouse) (intraperitoneal) in CD2F1 (CDF1) mice
Conditions: endpoint: median survival time, schedule: Q01DX010 (ip), higher = longer survival
Description: The antitumor activity of compounds was measured in mice bearing transplantable tumors. Survival or tumor size were measured and the results are expressed as the measurement made in the treated group (T) divided by the measurement made in the vehicle treated control group (C). The tumor model used in this assay is Reticulum Cell Sarcoma (Kelley Mouse) (intraperitoneal) in CD2F1 (CDF1) mice

[1] = dose: 0.25 mg/kg/injection, vehicle: saline
[2] = dose: 0.5 mg/kg/injection, vehicle: saline
[3] = dose: 1.0 mg/kg/injection, vehicle: saline
[4] = dose: 2.0 mg/kg/injection, vehicle: saline
[5] = dose: 4.0 mg/kg/injection, vehicle: saline
[6] = dose: 8.0 mg/kg/injection, vehicle: saline
[7] = dose: 16.0 mg/kg/injection, vehicle: saline
[8] = dose: 7.5 mg/kg/injection, vehicle: saline
[9] = dose: 15.0 mg/kg/injection, vehicle: saline
[10] = dose: 30.0 mg/kg/injection, vehicle: saline
[11] = dose: 3.13 mg/kg/injection, vehicle: saline
[12] = dose: 6.25 mg/kg/injection, vehicle: saline
[13] = dose: 12.5 mg/kg/injection, vehicle: saline
[14] = dose: 25.0 mg/kg/injection, vehicle: saline
[15] = dose: 50.0 mg/kg/injection, vehicle: saline
[16] = dose: 100.0 mg/kg/injection, vehicle: saline
[17] = dose: 62.5 mg/kg/injection, vehicle: saline
[18] = dose: 125.0 mg/kg/injection, vehicle: saline
[19] = dose: 250.0 mg/kg/injection, vehicle: saline
[20] = dose: 500.0 mg/kg/injection, vehicle: saline
[21] = dose: 5.0 mg/kg/injection, vehicle: saline
[22] = dose: 10.0 mg/kg/injection, vehicle: saline
[23] = dose: 31.3 mg/kg/injection, vehicle: saline
[24] = dose: 200.0 mg/kg/injection, vehicle: saline
[25] = dose: 2.0 mg/kg/injection, vehicle: other
[26] = dose: 4.0 mg/kg/injection, vehicle: other
[27] = dose: 8.0 mg/kg/injection, vehicle: other
[28] = dose: 6.0 mg/kg/injection, vehicle: saline
[29] = dose: 12.0 mg/kg/injection, vehicle: saline
[30] = dose: 7.8 mg/kg/injection, vehicle: saline
[31] = dose: 15.6 mg/kg/injection, vehicle: saline
[32] = dose: 18.8 mg/kg/injection, vehicle: saline
[33] = dose: 37.5 mg/kg/injection, vehicle: saline
[34] = dose: 75.0 mg/kg/injection, vehicle: saline

With Nc1nc(F)nc2c1ncn2C1OC(CO)C(O)C1O (configuration not stated) the T/C [1] was 100 % of control, the T/C [2] was 100 % of control and 105 % of control and the T/C [3] was 91 % of control and 103 % of control. The T/C [4] was 100 % of control and 105 % of control and the T/C [5] was 88 % of control.

With Nc1nc(N)c2nc(CNc3ccc(C(=O)NC(CCC(=O)O)C(=O)O)cc3)cnc2n1 (configuration not stated) the T/C (dose: 25.0 micrograms/kg/injection, vehicle: other) was 105 % of control and 113 % of control, the T/C (dose: 50.0 micrograms/kg/injection, vehicle: other) was 107 % of control and 121 % of control and the T/C (dose: 100.0 micrograms/kg/injection, vehicle: other) was 110 % of control and 121 % of control. The T/C (dose: 200.0 micrograms/kg/injection, vehicle: other) was 94 % of control and 113 % of control.

In the case of Nc1nc(SCc2ccccc2)c2[nH]cnc2n1, the T/C [6] is reported as 106 % of control, the T/C [7] is reported as 106 % of control and the T/C (dose: 64.0 mg/kg/injection, vehicle: saline) is reported as 116 % of control. For the same compound, the T/C (dose: 128.0 mg/kg/injection, vehicle: saline) was 112 % of control.

CN(C)[C@@H]1C(=O)C(C(N)=O)=C(O)[C@@]2(O)C(=O)C3=C(O)c4c(O)cccc4C[C@H]3C[C@@H]12 was tested, and the T/C (dose: 3.75 mg/kg/injection, vehicle: saline) was 100 % of control, the T/C [8] was 105 % of control and 107 % of control and the T/C [9] was 100 % of control and 102 % of control. For the same compound, the T/C [10] was 94 % of control and 100 % of control.

With CCCNc1ncnc2[nH]ncc12 the T/C [11] was 97 % of control and 100 % of control, the T/C [12] was 97 % of control and 100 % of control and the T/C [13] was 97 % of control and 105 % of control. The T/C [14] was 100 % of control and 102 % of control.

In the case of COc1cc(-c2ccc(Nc3ccccc3C(=O)O)c(OC)c2)ccc1Nc1ccccc1C(=O)O, the T/C [15] is reported as 105 % of control and the T/C [16] is reported as 100 % of control.

CC(=O)N(C)C was tested, and the T/C [17] was 100 % of control and 107 % of control, the T/C [18] was 95 % of control and 102 % of control and the T/C [19] was 97 % of control and 105 % of control. The T/C [20] was 90 % of control and 100 % of control.

In the case of S=P(N1CCOCC1)(N1CC1)N1CC1, the T/C (dose: 2.5 mg/kg/injection, vehicle: saline) is reported as 100 % of control and 103 % of control, the T/C [21] is reported as 100 % of control and 106 % of control and the T/C [22] is reported as 100 % of control and 106 % of control.

O=c1cn[nH]c(=O)[nH]1 was tested, and the T/C [17] was 92 % of control and 100 % of control, the T/C [18] was 95 % of control and 100 % of control and the T/C [19] was 97 % of control. The T/C [20] was 90 % of control and 102 % of control.

With CCCCNc1ncnc2c1cnn2C the T/C [23] was 95 % of control and 100 % of control, the T/C [17] was 94 % of control and 102 % of control and the T/C [18] was 90 % of control and 100 % of control.

For CCCSc1ncnc2nc[nH]c12, the T/C [23] was 100 % of control and 112 % of control, the T/C [17] was 96 % of control and 106 % of control and the T/C [18] was 96 % of control and 106 % of control. The T/C [19] was 109 % of control.

With CS(=O)(=O)OCCCCOS(C)(=O)=O the T/C [12] was 94 % of control and 105 % of control, the T/C [13] was 97 % of control and 108 % of control and the T/C [14] was 100 % of control and 102 % of control. For the same compound, the T/C [15] was 100 % of control and 105 % of control.

In the case of O=[n+]1c2c(n([O-])c3ccccc31)-c1cccc3cccc-2c13, the T/C [14] is reported as 92 % of control and 100 % of control, the T/C [15] is reported as 92 % of control and 106 % of control and the T/C [16] is reported as 100 % of control and 103 % of control. For the same compound, the T/C [24] was 92 % of control and 100 % of control.

In the case of O=C(Nc1ccc(C2=NCCCN2)cc1)c1ccc(NC(=O)c2ccc(C3=NCCCN3)cc2)cc1, the T/C (dose: 1.0 mg/kg/injection, vehicle: other) is reported as 117 % of control, the T/C [25] is reported as 208 % of control and 222 % of control and the T/C [26] is reported as 177 % of control. For the same compound, the T/C [27] was 122 % of control.

With Nc1ncnc2[nH]ncc12 the T/C (dose: 1.5 mg/kg/injection, vehicle: saline) was 100 % of control and 107 % of control, the T/C (dose: 3.0 mg/kg/injection, vehicle: saline) was 100 % of control and 110 % of control and the T/C [28] was 105 % of control and 110 % of control. For the same compound, the T/C [29] was 97 % of control and 100 % of control.

In the case of O=C(Nc1ccc(C2=NCCN2)cc1)c1ccc(C(=O)Nc2ccc(C3=NCCN3)cc2)c([N+](=O)[O-])c1, the T/C [28] is reported as 168 % of control, the T/C [6] is reported as 255 % of control and 297 % of control and the T/C [29] is reported as 281 % of control and 300 % of control.

CCN(CCNc1ccc(C)c2sc3cc(Cl)ccc3c(=O)c12)CC(C)O (configuration not stated) was tested, and the T/C [30] was 94 % of control, the T/C [31] was 94 % of control and the T/C [17] was 94 % of control. For the same compound, the T/C [18] was 88 % of control and the T/C [19] was 88 % of control.

With CC(CCC(C)OS(C)(=O)=O)OS(C)(=O)=O (configuration not stated) the T/C [5] was 100 % of control, the T/C [6] was 103 % of control and 106 % of control and the T/C [7] was 100 % of control and 109 % of control. The T/C (dose: 32.0 mg/kg/injection, vehicle: saline) was 109 % of control and 112 % of control.

For CS(=O)(=O)OCCCl, the T/C [32] was 103 % of control, the T/C [33] was 106 % of control and 115 % of control and the T/C [34] was 100 % of control.

With O=C(Nc1ccc(C2=NCCN2)cc1)c1ccc(C(=O)Nc2ccc(C3=NCCN3)cc2)c(Cl)c1 the T/C [25] was 111 % of control and 115 % of control, the T/C [26] was 113 % of control and the T/C [27] was 168 % of control. The T/C (dose: 16.0 mg/kg/injection, vehicle: other) was 151 % of control and 197 % of control and the T/C (dose: 32.0 mg/kg/injection, vehicle: other) was 95 % of control.

CCN(CC)CCNc1ccc(C)c2sc3ccccc3c(=O)c12 was tested, and the T/C [16] was 106 % of control and the T/C [24] was 103 % of control and 106 % of control.

In the case of CN(C)c1nc(N(C)C)nc(N(C)C)n1, the T/C [32] is reported as 100 % of control and 103 % of control, the T/C [33] is reported as 93 % of control and 106 % of control and the T/C [34] is reported as 100 % of control and 109 % of control. The T/C (dose: 150.0 mg/kg/injection, vehicle: saline) was 100 % of control and 106 % of control.

In the case of CN(C)/N=N/c1nc[nH]c1C(N)=O, the T/C [15] is reported as 100 % of control, the T/C [16] is reported as 107 % of control and 120 % of control and the T/C (dose: 400.0 mg/kg/injection, vehicle: saline) is reported as 100 % of control.

With CS(=O)(=O)OCCC(=O)N1CCN(C(=O)CCOS(C)(=O)=O)CC1 the T/C [13] was 111 % of control and 114 % of control, the T/C [15] was 114 % of control and the T/C [16] was 114 % of control.

CN(C)c1ccc(Nc2c3ccccc3nc3ccccc23)cc1 was tested, and the T/C (dose: 54.0 mg/kg/injection, vehicle: saline) was 159 % of control and 183 % of control, the T/C (dose: 80.0 mg/kg/injection, vehicle: saline) was 183 % of control and 187 % of control and the T/C (dose: 120.0 mg/kg/injection, vehicle: saline) was 86 % of control.

For Nc1nc(=S)c2[nH]cnc2[nH]1, the T/C (dose: 1.25 mg/kg/injection, vehicle: saline) was 150 % of control and 170 % of control, the T/C [21] was 105 % of control and 120 % of control and the T/C [22] was 105 % of control and 108 % of control.

N#C[C@@H]1C2C=CC(CC2)[C@H]1C#N was tested, and the T/C [1] was 97 % of control, the T/C [2] was 102 % of control and 105 % of control and the T/C [3] was 88 % of control and 94 % of control. The T/C [4] was 97 % of control and 100 % of control.

In the case of CCOC(N)=O, the T/C [18] is reported as 102 % of control, the T/C [19] is reported as 97 % of control and 102 % of control and the T/C [20] is reported as 100 % of control and 102 % of control. For the same compound, the T/C (dose: 1000.0 mg/kg/injection, vehicle: saline) was 88 % of control and 100 % of control.

N=[N+]=CC(=O)OCC(N)C(=O)O (configuration not stated) was tested, and the T/C [11] was 106 % of control, the T/C [12] was 113 % of control and the T/C [13] was 120 % of control. For the same compound, the T/C [14] was 116 % of control.

O=C(O)CCCc1ccc(N(CCCl)CCCl)cc1 was tested, and the T/C [12] was 103 % of control and the T/C [13] was 106 % of control.

For COc1ccc2c(c1OC)C(=O)O[C@@H]2[C@H]1c2c(cc3c(c2OC)OCO3)CCN1C, the T/C [30] was 100 % of control, the T/C [31] was 100 % of control and the T/C [23] was 97 % of control and 102 % of control. For the same compound, the T/C [17] was 91 % of control and 97 % of control, the T/C [18] was 91 % of control and the T/C [19] was 91 % of control.

Clc1ncnc2nc[nH]c12 was tested, and the T/C [8] was 94 % of control and 111 % of control, the T/C [9] was 94 % of control and 100 % of control and the T/C [10] was 97 % of control and 102 % of control. The T/C (dose: 60.0 mg/kg/injection, vehicle: saline) was 100 % of control and 105 % of control.

With O=c1[nH]c(=O)n(C2CC(O)C(CO)O2)cc1F (configuration not stated) the T/C [21] was 156 % of control, the T/C (dose: 20.0 mg/kg/injection, vehicle: saline) was 171 % of control and the T/C (dose: 40.0 mg/kg/injection, vehicle: saline) was 187 % of control.
